Results taken from patent US9789121B2, “Small molecules that replace or agonize p53 function” (BUCK INSTITUTE, priority 2004, dated 2017).
Entries after “also recorded” stand apart in the source; their conditions may differ.

Key:
[1] = test system: p53/Bax reporter in HEK293T cells; experiment: p53/Bax luciferase reporter system in HEK293T cells; assay type: cell-based
Description: To identify p53 mimics, we developed a live mammalian cell system that reports the promotion of the expression of the pro-apoptotic Bax protein. The bax promoter consists of a 372 nucleotide 5′ UTR, a TATAA sequence, and several consensus sequences that bind p53, resulting in up-regulation of Bax expression (see, e.g., FIG. 1). By expressing these sites upstream of the gene encoding luciferase in HEK293T cells, we have established a novel set of reporter cell lines. These cells provide a system which allows identification of both direct activators of Bax expression and replacements of an apoptotic function of p53. In initial studies, cotransfection of a p53 expression plasmid with a reporter bearing oligomerized consensus binding sites yielded strongly luminescent cells, whereas cotransfection with an irrelevant plasmid gave no luminescence. […] By employing the Multi-Probe H liquid handling robotic system and the ultra-sensitive Top-Count luminometer, high-speed screening of thousands of compounds has been enabled at the Buck Institute. We obtained and screened a 2000 compound small molecule library made available by the National Cancer Institute in our p53 reporter system in HEK293T cells.

[2] = test system: PC3; experiment: G6 sensitivity of prostate cell line PC3 (p53 null); assay type: cell-based; details: listed as Rp53-1
[3] = test system: DU145; experiment: G6 sensitivity of prostate cell line DU145 (p53 Mt); assay type: cell-based; details: listed as Rp53-1
[4] = test system: LNcap; experiment: G6 sensitivity of prostate cell line LNcap (p53 WT); assay type: cell-based; details: listed as Rp53-1
[5] = test system: ColoHSR; experiment: G6 sensitivity of colon cell line ColoHSR (p53 Mt); assay type: cell-based; details: listed as Rp53-1
[6] = test system: SW480; experiment: G6 sensitivity of colon cell line SW480 (p53 Mt); assay type: cell-based; details: listed as Rp53-1
[7] = test system: Lovo; experiment: G6 sensitivity of colon cell line Lovo (p53 WT); assay type: cell-based; details: listed as Rp53-1
[8] = test system: HT29; experiment: G6 sensitivity of colon cell line HT29 (p53 Mt); assay type: cell-based; details: listed as Rp53-1
[9] = test system: MDA-435; experiment: G6 sensitivity of breast cancer cells MDA-435 (p53 Mt); assay type: cell-based, human; details: MDA-435, breast, listed as Rp53-1
Description: To assess the ability of the small molecule compound Rp53-1 to mimic the transcription-promoting functions of p53 leading to Bax expression and induction of cell death, p53-mutated MDA-MB-435 and p53-wild-type MCF-7 human breast cancer cells were treated with Rp53-1. […] Lack of toxicity in cells generating normal p53 activity (all other human cells) would reduce possible side effects. Inherent in the initial drug design was a strategy to develop a therapy that targets mutant p53 containing cells and that would leave healthy cells expressing normal p53 unaffected (FIG. 3).

[10] = test system: Saos-2; experiment: G6 sensitivity of osteosarcoma cell line Saos-2 (p53 null); assay type: cell-based; details: Saos-2, osteosarcoma, listed as Rp53-1
[11] = test system: breast cancer cells; experiment: Single pulse treatment of breast cancer cells with G6; assay type: cell-based; details: single pulse of G6 in the nanomolar range
Description: Thus G6 appears to be a potent treatment.

[12] = test system: p53 Reporter in p53 Mt and Null Cells; experiment: p53 reporter in p53 Mt and Null cells; assay type: cell-based
[13] = test system: human osteosarcoma xenografted nude mice; experiment: G6 treatment of human osteosarcoma xenografted nude mice; assay type: in vivo
Description: Initial trials of G6 in human osteosarcoma xenografted nude mice have shown promise (FIG. 10). Mice bearing p53 abnormal tumors have responded well to G6. […] Further mouse studies are currently underway.

[14] = test system: p53 defective tumor cell line; experiment: G6 treatment of p53 defective tumor cell lines; assay type: cell-based; details: every p53 defective tumor cell line treated
Description: (§1) Inherent in the initial drug design was a strategy to develop a therapy that targets mutant p53 containing cells and that would leave healthy cells expressing normal p53 unaffected (FIG. 3).

[15] = test system: wild type cells from corresponding normal tissue; experiment: G6 treatment of wild type cells from corresponding normal tissue; assay type: cell-based
Description: as §1

Cc1cc(OCc2nc(N)nc(N)c2-c2ccc(Cl)c(Cl)c2)ccc1[N+](=O)[O-] [G6] was tested, and the “expression of luciferase levels relative to transfected wild-type p53” value ([1]; high concentrations (10 μM)) was “greater than transfected wild-type p53”, the “luciferase expression and activity (p53 reporter)” value ([1]; listed as Rp53-1) was “activates the p53/Bax reporter; also recorded: significant levels of luciferase activity” and the “G6 Sensitivity” value [2] was “sensitive”. For the same compound, the “G6 Sensitivity” value [3] was “sensitive”, the “G6 Sensitivity” value [4] was “resistant” and the “G6 Sensitivity” value [5] was “sensitive”. For the same compound, the “G6 Sensitivity” value [6] was “sensitive”, the “G6 Sensitivity” value [7] was “resistant” and the “G6 Sensitivity” value [8] was “sensitive”. For the same compound, the “G6 Sensitivity” value [9] was “sensitive”, the “G6 Sensitivity” value [10] was “sensitive” and the “activation of the cell death program / drug efficacy” value [11] was “complete drug efficacy; also recorded: sufficient to activate the cell death program”. The “induction of p53 Reporter” value [12] was “induces p53 Reporter”, the adverse side effects ([13]; human osteosarcoma xenografted nude mice treated with G6) was “none of the mice have shown adverse side effects” and the tumor regression ([13]; nude mice implanted with human osteosarcoma tissue, p53 abnormal tumors) was “complete regression of tumor”. For the same compound, the “susceptibility to G6” value [14] was “showed susceptibility” and the “effect of G6 on wild type cells” value [15] was “unaffected”.
